Test results published in patent US20250339531A1, “DUX4 POLYPEPTIDES AND NUCLEIC ACIDS FOR TREATING INFLAMMATORY AND AUTOIMMUNE CONDITIONS” (Fred Hutchinson Cancer Center, priority 2021, published 2025).
“Also recorded” adds a separate entry of the source.

Tests used:
Type in all cases: cell-based, human
[1] = system: MHC class I proteins (HLA-A/B/C); experiment: Immunoblot of IFNG-induced MHC class I protein, continuous or pulsed protocol, MB135 myoblasts; settings: 4 h doxycycline pulse, IFNG 28, 52 or 76 h later
[2] = system: immunoproteasome subunits PSMB8, PSMB9, and PSMB10; experiment: Immunoblot of IFNG-induced immunoproteasome subunits; settings: for suppression of IFNG-induced immunoproteasome subunit protein, pulsed protocol / suppression of IFNG-induced immunoproteasome subunit protein, continuous protocol: MB135 cells; for suppression of IFNG-induced immunoproteasome subunit protein, pulsed protocol: 4 h doxycycline pulse, later IFNG 16 h; for suppression of IFNG-induced immunoproteasome subunit protein, continuous protocol: doxycycline 20 h, IFNG last 16 h
Procedure: In the “continuous” protocol (similar to the experiments shown in the prior FIGS. 1, 2, 4, 5, and 6), doxycycline is added to induce DUX4 expression at time 0 and four hours later IFNG is added for an additional 16 hours, resulting in 20 hours of continuous DUX4 induction with the last 16 hrs exposed to IFNG.
In the “pulsed” protocol, doxycycline is added at time 0 to induce DUX4 expression, but after four hours the media is changed to remove the doxycycline, resulting in a pulse of DUX4 mRNA and protein sufficient to induce DUX4 target gene expression (see Resnick et al., Cell Rep. 2019 Nov. 12; 29(7):1812-1820.e5). IFNG is added at 28 hours for a period of 16 hours prior to harvesting the cells. […] This difference is not likely to be due to different amounts of the DUX4 and mutant DUX4 proteins because at the time of harvest both DUX4 and the F67A mutant DUX4 protein levels have declined to similarly low amounts relative to the continuous protocol, but could be due to the activation of DUX4 target genes by the full-length DUX4 since the H3.X/Y proteins show persistent expression in the pulsed protocol.
Protein samples were harvested in RIPA buffer [150 mM NaCl, 1% NP-40, 0.5% Na-deocycholate, 1% SDS, 25 mM Tris-HCl pH7.4] supplemented with protease and phosphatase inhibitor tablets (Pierce), followed by sonication in Diagenode Bioruptor. Lysate was cleared by centrifugation at 16000×g and quantified using a Pierce BCA assay (Thermo Fisher Scientific). Samples were run on NuPAGE precast polyacrylamide gels (Invitrogen) and transferred to PVDF membrane. Membranes were blocked in PBS containing 0.1% Tween-20 and 5% non-fat dry milk before overnight incubation at 4° C. with primary antibodies (see resource table for a list of antibodies used in this study). Membranes were incubated with horseradish peroxidase-conjugated secondary antibodies for 1 hour at room temperature and SuperSignal chemiluminescent substrate (Thermo Scientific) was used for detection on film with a Mini-medical 90 processor. Membranes were stripped with Restore Western Blot Stripping Buffer (Pierce).

[3] = system: STAT1 binding to ISG promoters (GBP1, IDO1, CXCL10); experiment: STAT1 chromatin immunoprecipitation (ChIP-qPCR) at ISG promoters; settings: MB135-iDUX4-CTD cells, IFNG ± doxycycline
Procedure: Chromatin immunoprecipitation (ChIP) was performed as previously described (Nelson et al 2006) with the following modifications: Cells were plated and allowed to grow to 70-80% confluence. Pelleted nuclei were sonicated on a Diagenode Biruptor on “Low” for 10 min as 30 sec on/30 sec off, followed by 6 rounds of sonication on “High” for 10 min each as 30 sec on/30 sec off (70 minutes total sonication) in IP Buffer+0.5% SDS. For immunoprecipitation, 500 ng of chromatin was set aside per condition as an “Input” and 4 μg of antibody was added to 10 μg of chromatin in an equal volume of IP Buffer+0.5% SDS across samples. IP Buffer (150 mM NaCl, 50 mM Tris-HCl pH 7.4, 5 mM EDTA, 1% Triton X-100, 0.5% NP-40, +Roche complete mini protease inhibitor EDTA-free) was added to lower the percentage of SDS <0.1%, and tubes were incubated with rotation overnight at 4° C. During this time, protein-A agarose Fastflow beads (Millipore) were washed twice with IP Buffer and then blocked in IP Buffer containing 2% BSA by rotating overnight at 4° C. After clearing the chromatin as described, beads were aliquoted to fresh tubes and the top 90% of chromatin was transferred to the tubes containing the blocked bead slurry. Tubes were rotated for 1 hour at 4° C. […]

Row | Substance | duration of MHC class I protein suppression after a pulse [1] | suppression of IFNG-induced immunoproteasome subunit protein, pulsed protocol [2] | suppression of IFNG-induced immunoproteasome subunit protein, pulsed protocol ([2]; listed as wildtype DUX4) | suppression of IFNG-induced immunoproteasome subunit protein, continuous protocol [2] | suppression of IFNG-induced immunoproteasome subunit protein, continuous protocol ([2]; listed as wildtype DUX4) | suppression of PSMB9 in PKR knockout background ([2]; MB135iDUX4 WT and PKR-KO cells, continuous or pulsed) | STAT1 occupancy at ISG promoters [3]
1 | DUX4: human DUX4 protein SEQ ID NO:3 expressed from doxycycline inducible codon altered transgene SEQ ID NO:2 | at Least Four Days; also recorded: becomes more pronounced between 24 and 72 hours after a pulse of DUX4; also recorded: for nearly four days; also recorded: suppressed MHC class I even four days later; also recorded: persists days after a DUX4 pulse | completely blocked; also recorded: elicited the same degree of suppression when assayed forty-four hours later; also recorded: completely block protein accumulation of PSMB9 and PSMB10 | suppressed MHC-I and immunoproteasome subunits | completely blocked; also recorded: IFNG-induction of MHC-I and the immunoproteasome was suppressed; also recorded: completely block protein accumulation of PSMB9 and PSMB10 | suppressed IFNG-induced MHC-I and the immunoproteasome expression | evident in both wild-type (WT) and PKR-KO cells | 
2 | longCTD: 3×FLAG tag and nls in frame with carboxyterminal 271 amino acids of DUX4 (aa154-424), SEQ ID NOS: 8-9 |  |  |  |  |  |  | diminished STAT1 occupancy at all three ISGs; also recorded: moderately decreases STAT1 occupancy at ISG promoters
